Legend:
BTK [1] = target: T1, BTK (Homo sapiens (Human), UniProt Q06187); assay: In Vitro BTK Kinase Assay: BTK-POLYGAT-LS ASSAY; assay type: biochemical; conditions: fluorescein-labeled polyGAT peptide 100 nM, BTK enzyme 0.25 nM, 30 minutes, TRF
Method in brief: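 ATP […] and polyGAT peptide (100 nM), final concentrations, in Tris-HCl pH 7.5 kinase buffer with MgCl2, DTT, Triton X-100 and casein. Reaction run 30 min, stopped with EDTA, then 45 min at room temperature.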

BTK [2] = target: T1, BTK; assay: In Vitro PD Assay in Human Whole Blood (pBTK assay); assay type: cell-based; conditions: human heparinized whole blood, 37° C. for 30 min, total BTK capture and phosphotyrosine detection (ECL)
Method in brief: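 Heparinized human venous whole blood spiked with serially diluted compound (0.1% DMSO final) and incubated 30 min at 37° C. Lysed with protease/phosphatase inhibitors (high control +PPi, low control −PPi lacking phosphatase inhibitors); total BTK captured and phosphotyrosine detected.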

T1 sequence (Q06187 whole entry): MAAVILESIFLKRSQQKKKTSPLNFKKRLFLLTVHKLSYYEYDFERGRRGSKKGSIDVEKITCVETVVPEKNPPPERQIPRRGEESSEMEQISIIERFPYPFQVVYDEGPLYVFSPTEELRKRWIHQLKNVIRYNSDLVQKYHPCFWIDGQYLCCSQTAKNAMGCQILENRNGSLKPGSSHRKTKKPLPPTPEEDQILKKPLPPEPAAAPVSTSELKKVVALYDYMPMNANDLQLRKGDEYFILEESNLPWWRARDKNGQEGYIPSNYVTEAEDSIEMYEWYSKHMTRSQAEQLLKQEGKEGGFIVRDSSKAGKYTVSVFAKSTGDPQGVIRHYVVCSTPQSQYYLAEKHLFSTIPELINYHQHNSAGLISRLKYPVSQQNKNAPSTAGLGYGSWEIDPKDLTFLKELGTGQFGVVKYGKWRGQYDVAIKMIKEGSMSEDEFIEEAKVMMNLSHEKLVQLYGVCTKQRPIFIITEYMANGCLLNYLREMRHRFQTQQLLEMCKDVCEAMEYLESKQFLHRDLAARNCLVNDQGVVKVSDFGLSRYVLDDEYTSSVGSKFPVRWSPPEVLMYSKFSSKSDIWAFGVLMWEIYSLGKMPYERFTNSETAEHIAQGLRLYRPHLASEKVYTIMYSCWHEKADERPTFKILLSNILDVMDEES

With `Cn1ccc(Nc2ncnc(-c3ccc(CNC(=O)c4nc(C(C)(C)C)no4)c(CC(F)F)c3)n2)n1` [Compound 68, 3-(tert-butyl)-N-(2-(2,2-difluoroethyl)-4-(4-((1-methyl-1H-pyrazol-3-yl)amino)-1,3,5-triazin-2-yl)benzyl)-1,2,4-oxadiazole-5-carboxamide] the IC50 (BTK [1]) was 0.001 to 0.01 µM and the IC50 (BTK [2]) was 0.5 to 10 µM.
`C[C@@H](NC(=O)c1noc(C(C)(C)C)n1)c1ccc(-c2ncnc(Nc3cnn(C)c3)n2)c(F)c1Cl` [Compound 69, (R)-5-(tert-butyl)-N-(1-(2-chloro-3-fluoro-4-(4-((1-methyl-1H-pyrazol-4-yl)amino)-1,3,5-triazin-2-yl)phenyl)ethyl)-1,2,4-oxadiazole-3-carboxamide] showed an IC50 (BTK [1]) of less than 0.001 µM and an IC50 (BTK [2]) of less than 0.1 µM.
`Cc1c([C@@H](C)NC(=O)c2noc(C(C)(C)C)n2)ccc(-c2ncnc(Nc3ccn(C)n3)n2)c1F` [Compound 71, (R)-5-(tert-butyl)-N-(1-(3-fluoro-2-methyl-4-(4-((1-methyl-1H-pyrazol-3-yl)amino)-1,3,5-triazin-2-yl)phenyl)ethyl)-1,2,4-oxadiazole-3-carboxamide] was tested, and the IC50 (BTK [1]) was less than 0.001 µM and the IC50 (BTK [2]) was 0.1 to 0.5 µM.
`Cc1c([C@@H](C)NC(=O)c2nc(C(C)(C)C)no2)ccc(-c2ncnc(Nc3ccn(C)n3)n2)c1F` [Compound 72, (R)-3-(tert-butyl)-N-(1-(3-fluoro-2-methyl-4-(4-((1-methyl-1H-pyrazol-3-yl)amino)-1,3,5-triazin-2-yl)phenyl)ethyl)-1,2,4-oxadiazole-5-carboxamide] was tested, and the IC50 (BTK [1]) was less than 0.001 µM and the IC50 (BTK [2]) was 0.1 to 0.5 µM.
With `Cc1c([C@@H](C)NC(=O)c2noc(C(C)(C)C)n2)ccc(-c2ncnc(Nc3cnn(C)c3)n2)c1F` [Compound 73, (R)-5-(tert-butyl)-N-(1-(3-fluoro-2-methyl-4-(4-((1-methyl-1H-pyrazol-4-yl)amino)-1,3,5-triazin-2-yl)phenyl)ethyl)-1,2,4-oxadiazole-3-carboxamide] the IC50 (BTK [1]) was less than 0.001 µM and the IC50 (BTK [2]) was less than 0.1 µM.
`Cc1c([C@@H](C)NC(=O)c2nc(C(C)(C)C)no2)ccc(-c2ncnc(Nc3cnn(C)c3)n2)c1F` [Compound 74, (R)-3-(tert-butyl)-N-(1-(3-fluoro-2-methyl-4-(4-((1-methyl-1H-pyrazol-4-yl)amino)-1,3,5-triazin-2-yl)phenyl)ethyl)-1,2,4-oxadiazole-5-carboxamide] was tested, and the IC50 (BTK [1]) was less than 0.001 µM and the IC50 (BTK [2]) was less than 0.1 µM.
`Cc1c([C@@H](C)NC(=O)c2cc(C(C)(C)C)no2)ccc(-c2ncnc(Nc3cnn(C)c3)n2)c1F` [Compound 75, (R)-3-(tert-butyl)-N-(1-(3-fluoro-2-methyl-4-(4-((1-methyl-1H-pyrazol-4-yl)amino)-1,3,5-triazin-2-yl)phenyl)ethyl)isoxazole-5-carboxamide] was tested, and the IC50 (BTK [1]) was less than 0.001 µM and the IC50 (BTK [2]) was 0.1 to 0.5 µM.
Molecule `Cc1c([C@@H](C)NC(=O)c2cc(C(C)(C)C)on2)ccc(-c2ncnc(Nc3cnn(C)c3)n2)c1F` [Compound 76, (R)-5-(tert-butyl)-N-(1-(3-fluoro-2-methyl-4-(4-((1-methyl-1H-pyrazol-4-yl)amino)-1,3,5-triazin-2-yl)phenyl)ethyl)isoxazole-3-carboxamide] has an IC50 (BTK [1]) of less than 0.001 µM and an IC50 (BTK [2]) of 0.1 to 0.5 µM.
`Cc1c(-c2ncnc(Nc3cnn(C)c3)n2)ccc([C@@H](C)NC(=O)c2noc(C(C)(C)C)n2)c1Cl` [Compound 77, (R)-5-(tert-butyl)-N-(1-(2-chloro-3-methyl-4-(4-((1-methyl-1H-pyrazol-4-yl)amino)-1,3,5-triazin-2-yl)phenyl)ethyl)-1,2,4-oxadiazole-3-carboxamide] showed an IC50 (BTK [1]) of less than 0.001 µM and an IC50 (BTK [2]) of 0.1 to 0.5 µM.
In the case of `Cc1c(-c2ncnc(Nc3cnn(C)c3)n2)ccc([C@@H](C)NC(=O)c2nc(C(C)(C)C)no2)c1Cl` [Compound 78, (R)-3-(tert-butyl)-N-(1-(2-chloro-3-methyl-4-(4-((1-methyl-1H-pyrazol-4-yl)amino)-1,3,5-triazin-2-yl)phenyl)ethyl)-1,2,4-oxadiazole-5-carboxamide], the IC50 (BTK [1]) is reported as 0.001 to 0.01 µM and the IC50 (BTK [2]) is reported as 0.1 to 0.5 µM.
For `Cc1c(-c2ncnc(Nc3ccn(C)n3)n2)ccc([C@@H](C)NC(=O)c2noc(C(C)(C)C)n2)c1Cl` [Compound 79, (R)-5-(tert-butyl)-N-(1-(2-chloro-3-methyl-4-(4-((1-methyl-1H-pyrazol-3-yl)amino)-1,3,5-triazin-2-yl)phenyl)ethyl)-1,2,4-oxadiazole-3-carboxamide], the IC50 (BTK [1]) was 0.001 to 0.01 µM and the IC50 (BTK [2]) was 0.5 to 10 µM.
Work on `Cc1c([C@@H](C)NC(=O)c2nc(C(C)(C)C)no2)ccc(-c2ncnc(Nc3cnn(C)c3)n2)c1Cl` [Compound 80, (R)-3-(tert-butyl)-N-(1-(3-chloro-2-methyl-4-(4-((1-methyl-1H-pyrazol-4-yl)amino)-1,3,5-triazin-2-yl)phenyl)ethyl)-1,2,4-oxadiazole-5-carboxamide] yielded an IC50 (BTK [1]) of less than 0.001 µM and an IC50 (BTK [2]) of 0.1 to 0.5 µM.
With `Cc1c([C@@H](C)NC(=O)c2noc(C(C)(C)C)n2)ccc(-c2ncnc(Nc3cnn(C)c3)n2)c1Cl` [Compound 81, (R)-5-(tert-butyl)-N-(1-(3-chloro-2-methyl-4-(4-((1-methyl-1H-pyrazol-4-yl)amino)-1,3,5-triazin-2-yl)phenyl)ethyl)-1,2,4-oxadiazole-3-carboxamide] the IC50 (BTK [1]) was less than 0.001 µM and the IC50 (BTK [2]) was less than 0.1 µM.
With `C[C@@H](NC(=O)c1noc(C(C)(C)C)n1)c1ccc(-c2ncnc(Nc3ccn(C)n3)n2)c(F)c1C(F)F` [Compound 82, (R)-5-(tert-butyl)-N-(1-(2-(difluoromethyl)-3-fluoro-4-(4-((1-methyl-1H-pyrazol-3-yl)amino)-1,3,5-triazin-2-yl)phenyl)ethyl)-1,2,4-oxadiazole-3-carboxamide] the IC50 (BTK [1]) was 0.001 to 0.01 µM and the IC50 (BTK [2]) was 0.5 to 10 µM.
For `Cn1ccc(Nc2ncnc(-c3cc4c(cc3F)[C@H](NC(=O)c3noc(C(C)(C)C)n3)CCCC4)n2)n1` [Compound 84, (R)-5-(tert-butyl)-N-(3-fluoro-2-(4-((1-methyl-1H-pyrazol-3-yl)amino)-1,3,5-triazin-2-yl)-6,7,8,9-tetrahydro-5H-benzo[7]annulen-5-yl)-1,2,4-oxadiazole-3-carboxamide], the IC50 (BTK [1]) was less than 0.001 µM and the IC50 (BTK [2]) was 0.1 to 0.5 µM.
With `Cn1ccc(Nc2ncnc(-c3cc4c(cc3F)[C@H](NC(=O)c3nc(C(C)(C)C)no3)CCCC4)n2)n1` [Compound 85, (R)-3-(tert-butyl)-N-(3-fluoro-2-(4-((1-methyl-1H-pyrazol-3-yl)amino)-1,3,5-triazin-2-yl)-6,7,8,9-tetrahydro-5H-benzo[7]annulen-5-yl)-1,2,4-oxadiazole-5-carboxamide] the IC50 (BTK [1]) was less than 0.001 µM and the IC50 (BTK [2]) was less than 0.1 µM.
Molecule `Cn1cc(Nc2ncnc(-c3cc4c(cc3F)[C@H](NC(=O)c3noc(C(C)(C)C)n3)CCCC4)n2)cn1` [Compound 86, (R)-5-(tert-butyl)-N-(3-fluoro-2-(4-((1-methyl-1H-pyrazol-4-yl)amino)-1,3,5-triazin-2-yl)-6,7,8,9-tetrahydro-5H-benzo[7]annulen-5-yl)-1,2,4-oxadiazole-3-carboxamide] has an IC50 (BTK [1]) of less than 0.001 µM and an IC50 (BTK [2]) of less than 0.1 µM.
`Cn1cc(Nc2ncnc(-c3cc4c(cc3F)[C@H](NC(=O)c3nc(C(C)(C)C)no3)CCCC4)n2)cn1` [Compound 87, (R)-3-(tert-butyl)-N-(3-fluoro-2-(4-((1-methyl-1H-pyrazol-4-yl)amino)-1,3,5-triazin-2-yl)-6,7,8,9-tetrahydro-5H-benzo[7]annulen-5-yl)-1,2,4-oxadiazole-5-carboxamide] gave an IC50 (BTK [1]) of less than 0.001 µM and an IC50 (BTK [2]) of less than 0.1 µM.
`Cn1cc(Nc2ncnc(-c3ccc4c(c3F)CCCC[C@H]4NC(=O)c3noc(C(C)(C)C)n3)n2)cn1` [Compound 88, (R)-5-(tert-butyl)-N-(1-fluoro-2-(4-((1-methyl-1H-pyrazol-4-yl)amino)-1,3,5-triazin-2-yl)-6,7,8,9-tetrahydro-5H-benzo[7]annulen-5-yl)-1,2,4-oxadiazole-3-carboxamide] showed an IC50 (BTK [1]) of less than 0.001 µM and an IC50 (BTK [2]) of less than 0.1 µM.
`Cn1ccc(Nc2ncnc(-c3ccc4c(c3F)CCCC[C@H]4NC(=O)c3nc(C(C)(C)C)no3)n2)n1` [Compound 89, (R)-3-(tert-butyl)-N-(1-fluoro-2-(4-((1-methyl-1H-pyrazol-3-yl)amino)-1,3,5-triazin-2-yl)-6,7,8,9-tetrahydro-5H-benzo[7]annulen-5-yl)-1,2,4-oxadiazole-5-carboxamide] showed an IC50 (BTK [1]) of less than 0.001 µM and an IC50 (BTK [2]) of less than 0.1 µM.
In the case of `Cn1cc(Nc2ncnc(-c3ccc4c(c3)CN(CC(F)(F)F)CC[C@H]4NC(=O)c3noc(C(C)(C)C)n3)n2)cn1` [Compound 90, (R)-5-(tert-butyl)-N-(8-(4-((1-methyl-1H-pyrazol-4-yl)amino)-1,3,5-triazin-2-yl)-2-(2,2,2-trifluoroethyl)-2,3,4,5-tetrahydro-1H-benzo[c]azepin-5-yl)-1,2,4-oxadiazole-3-carboxamide], the IC50 (BTK [1]) is reported as less than 0.001 µM and the IC50 (BTK [2]) is reported as less than 0.1 µM.
Work on `Cn1cc(Nc2ncnc(-c3ccc4c(c3)CN(CC(F)(F)F)CC[C@H]4NC(=O)c3coc(C(C)(C)C)n3)n2)cn1` [Compound 92, 2-tert-butyl-N-[(5R)-8-[4-[(1-methylpyrazol-4-yl)amino]-1,3,5-triazin-2-yl]-2-(2,2,2-trifluoroethyl)-1,3,4,5-tetrahydro-2-benzazepin-5-yl]oxazole-4-carboxamide] yielded an IC50 (BTK [1]) of less than 0.001 µM and an IC50 (BTK [2]) of less than 0.1 µM.
Work on `Cn1cc(Nc2ncnc(-c3ccc4c(c3)CN(CC(F)(F)F)CC[C@H]4NC(=O)c3nc(C(C)(C)C)co3)n2)cn1` [Compound 93, 4-tert-butyl-N-[(5R)-8-[4-[(1-methylpyrazol-4-yl)amino]-1,3,5-triazin-2-yl]-2-(2,2,2-trifluoroethyl)-1,3,4,5-tetrahydro-2-benzazepin-5-yl]oxazole-2-carboxamide] yielded an IC50 (BTK [1]) of less than 0.001 µM and an IC50 (BTK [2]) of less than 0.1 µM.
